Data: patent US20250129070A1, “BIFUNCTIONAL ANDROGEN RECEPTOR COMPOUNDS” (priority 2023, published 2025)

Columns and labels:
Format in all cases: cell-based
AR / CBP ternary complex = test: Ternary complex formation assay (sandwich ELISA, AR capture / CBP detection) in VCaP cell lysates; conditions: 1.5 hours treatment, sandwich ELISA (AR capture, CBP or p300 detection)
In short: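 Anti-AR (AR 441)-coated plates capture AR from lysates of VCaP cells grown ≥3 days at 50K/well in 5% charcoal-stripped FBS, dosed with bifunctional for 1.5 h and lysed 30 min at 4 °C. Co-captured CBP/p300 is probed with rabbit mAb and HRP anti-rabbit, then QuantaRed fluorescence (570/585) is read at 0, 5 and 15 min.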

VCaP cells = test: VCaP growth inhibition assay; conditions: 30 pM R1881, 9 days, CTG
In short: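 Growth read by CTG luminescence after 9-day exposure to compound (final 100 nM–10 fM, 1:5 steps) plus 30 pM R1881, in phenol red-free DMEM with 5% CSS. Cells pre-incubated 72 h before dosing; IC50 by nonlinear 4-parameter regression.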

HEK-293 cells = test: HEK-293 growth inhibition assay; conditions: 3 days, CTG
In short: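 HEK-293 cells plated 24 hours before compound treatment, then exposed for 3 days at 37°C/5% CO2. Viability by CellTiter-Glo luminescence after 20 minutes at room temperature. IC50 from RLU versus concentration via 4-parameter logistic nonlinear regression.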

Q: For `CNC(=O)N1CCc2c(c(N3CCCc4cc(-c5cnn(C)c5)c(C(F)F)cc43)nn2C2CCN(C(=O)COCCOCCCN3CCN(c4ncc(C(=O)NC5C(C)(C)C(Oc6ccc(C#N)c(Cl)c6)C5(C)C)cn4)CC3)CC2)C1` (stereo not drawn) [Compound 102, 1-[1-[2-[2-[3-[4-[5-[[3-(3-chloro-4-cyano-phenoxy)-2,2,4,4-tetramethyl-cyclobutyl]carbamoyl]pyrimidin-2-yl]piperazin-1-yl]propoxy]ethoxy]acetyl]-4-piperidyl]-3-[7-(difluoromethyl)-6-(1-methylpyrazol-4-yl)-3,4-dihydro-2H-quinolin-1-yl]-N-methyl-6,7-dihydro-4H-pyrazolo[4,3-c]pyridine-5-carboxamide], which EC50 (AR / CBP ternary complex) is on record?
A: < 1 nM

Q: And the IC50 (VCaP cells)?
A: 0.1 to 1 nM

Q: What about the IC50 (HEK-293 cells) of the same compound?
A: > 10000 nM

Q: `CC(=O)N1CCc2c(c(N3CCCc4cc(-c5cnn(C)c5)c(C(F)F)cc43)nn2C2CCN(C3CCN(c4ncc(C(=O)NC5C(C)(C)C(Oc6ccc(C#N)c(Cl)c6)C5(C)C)cn4)CC3)CC2)C1` (stereo not drawn) [Compound 85, 2-[4-[4-[5-acetyl-3-[7-(difluoromethyl)-6-(1-methylpyrazol-4-yl)-3,4-dihydro-2H-quinolin-1-yl]-6,7-dihydro-4H-pyrazolo[4,3-c]pyridin-1-yl]-1-piperidyl]-1-piperidyl]-N-[3-(3-chloro-4-cyano-phenoxy)-2,2,4,4-tetramethyl-cyclobutyl]pyrimidine-5-carboxamide] was tested. Which EC50 (AR / CBP ternary complex) did it give?
A: < 1 nM

Q: And the IC50 (VCaP cells)?
A: 0.1 to 1 nM

Q: What about the IC50 (HEK-293 cells) of the same compound?
A: > 10000 nM

Q: What does the source list for `CNC(=O)N1CCc2c(c(N3CCCc4cc(-c5cnn(C)c5)c(C(F)F)cc43)nn2C2CCN(C(=O)COCCC3CCN(c4ncc(C(=O)NC5C(C)(C)C(Oc6ccc(C#N)c(Cl)c6)C5(C)C)cn4)CC3)CC2)C1` (stereo not drawn) [Compound 99, 1-[1-[2-[2-[1-[5-[[3-(3-chloro-4-cyano-phenoxy)-2,2,4,4-tetramethyl-cyclobutyl]carbamoyl]pyrimidin-2-yl]-4-piperidyl]ethoxy]acetyl]-4-piperidyl]-3-[7-(difluoromethyl)-6-(1-methylpyrazol-4-yl)-3,4-dihydro-2H-quinolin-1-yl]-N-methyl-6,7-dihydro-4H-pyrazolo[4,3-c]pyridine-5-carboxamide]?
A: EC50 (AR / CBP ternary complex): < 1 nM; IC50 (VCaP cells): ≤ 0.1 nM; IC50 (HEK-293 cells): > 10000 nM

Q: Which results are given for `CNC(=O)N1CCc2c(c(N3CCCc4cc(-c5cnn(C)c5)c(C(F)F)cc43)nn2C2CCN(CC3CCN(c4ncc(C(=O)NC5C(C)(C)C(Oc6ccc(C#N)c(Cl)c6)C5(C)C)cn4)CC3)CC2)C1` (stereo not drawn) [Compound 82, 1-[1-[[1-[5-[[3-(3-chloro-4-cyano-phenoxy)-2,2,4,4-tetramethyl-cyclobutyl]carbamoyl]pyrimidin-2-yl]-4-piperidyl]methyl]-4-piperidyl]-3-[7-(difluoromethyl)-6-(1-methylpyrazol-4-yl)-3,4-dihydro-2H-quinolin-1-yl]-N-methyl-6,7-dihydro-4H-pyrazolo[4,3-c]pyridine-5-carboxamide]?
A: EC50 (AR / CBP ternary complex): < 1 nM; IC50 (VCaP cells): ≤ 0.1 nM; IC50 (HEK-293 cells): > 10000 nM

Q: Which EC50 (AR / CBP ternary complex) does the source give for `CC(=O)N1CCc2c(c(N3CCCc4cc(-c5cnn(C)c5)c(C(F)F)cc43)nn2C2CCN(S(=O)(=O)C3CCN(c4ncc(C(=O)NC5C(C)(C)C(Oc6ccc(C#N)c(Cl)c6)C5(C)C)cn4)CC3)CC2)C1` (stereo not drawn) [Compound 28, 2-[4-[[4-[5-acetyl-3-[7-(difluoromethyl)-6-(1-methylpyrazol-4-yl)-3,4-dihydro-2H-quinolin-1-yl]-6,7-dihydro-4H-pyrazolo[4,3-c]pyridin-1-yl]-1-piperidyl]sulfonyl]-1-piperidyl]-N-[3-(3-chloro-4-cyano-phenoxy)-2,2,4,4-tetramethyl-cyclobutyl]pyrimidine-5-carboxamide] here?
A: < 1 nM

Q: And the IC50 (VCaP cells)?
A: ≤ 0.1 nM

Q: And the IC50 (HEK-293 cells)?
A: > 10000 nM
